Data taken from patent EP1433789A1, “Pyrrolopyrazines and their use as selective apoptosis inducers” (Aponetics AG, priority 2002, dated 2004).

Key:
[1] = system: A20; assay: AnnexinV/7-AAD staining; assay type: cell-based, mouse; conditions: A20, 10 µM, 24 h treatment
Description: (§1) Adherent cells (1 - 2*10^5) are 24 h prior to compound treatment seeded into 24 well tissue culture plates. Suspension cells are pipetted into P-tubes immediately before treatment. Test compounds are added leading to a final concentrations of 10 µM. After 24 h treatment cells are harvested (in case of adherent cells by trypsinization) and transferred to FACS tubes (BD Biosciences). After centrifugation and removal of the supernatant, 100 µl complete medium containing AnnexinV-GST (10 µg) is added, mixed and incubated at 4°C for 30 minutes. Subsequently, the cells are washed once with medium and incubated with 100 µl anti-GST Alexa 488 (Molecular Probes A-11131) in medium diluted 1:500 for 30 minutes at 4°C. Then, cells are washed once and stained with 1 µg/ml 7-aminoactinomycin D (7-AAD) (Molecular Probes A-1310) in 250 µl medium and analyzed on the FACSCalibur™. AnnexinV is measured in FL1 whereas 7-AAD is measured in FL3. In Table 5 the percentage of positively stained cells after treatment with the respective compounds are indicated. The following scores are used: Score 0 relates to less than 10%, score 1 relates to more than 10% but less than 50% and score 2 relates to more than 50% positivity.

[2] = system: KB; assay: Hoechst 33342 nuclear staining (Table 3); assay type: cell-based, human; parameters: key: 0 relating to no activity; 1 relating to weak activity comprising less than 50% of the cells; score 2 relating to strong activity comprising more than 50% of the cells
Description: (§2) This assay is performed in 96 well tissue culture plates. Appropriate number of cells (adherent cells: 3 - 5*10^3, suspension cells: 8 - 10*10^3) are being seeded out in 80 µl complete medium. Adherent cells are incubated for 24 h for proper spreading out before addition of test compounds while suspension cells are immediately treated with test compounds after seeding out. The test compounds are added in 20 µl complete medium containing max 5% DMSO. The final compound concentrations in the assays are 10 µM, 3 µM,1 µM and 0.3 µM, respectively. After 24 h or 48 h incubation at culture conditions, 10 µl medium containing Hoechst 33342 dye (Sigma B-2261) at 2-5 µg/ml are added to each well. The assay plates are then further incubated for 30 minutes and subsequently analyzed with a standard inverted fluorescence microscope. The readout allows the determination of the fraction of apoptotic nuclei as well as other morphological criteria specific for apoptosis as a function of the treatment. The following scores are used: 0 relating to no activity, 1 relating to weak activity comprising less than 50% of the cells and score 2 relating to strong activity comprising more than 50% of the cells.

[3] = system: HeLa; assay: Hoechst 33342 nuclear staining (Table 3); assay type: cell-based, human; parameters: key: 0 relating to no activity; 1 relating to weak activity comprising less than 50% of the cells; score 2 relating to strong activity comprising more than 50% of the cells
Description: as §2

[4] = system: K562; assay: Hoechst 33342 nuclear staining (Table 3); assay type: cell-based, human; parameters: key: 0 relating to no activity; 1 relating to weak activity comprising less than 50% of the cells; score 2 relating to strong activity comprising more than 50% of the cells
Description: as §2

[5] = system: Jurkat; assay: Hoechst 33342 nuclear staining (Table 3); assay type: cell-based, human; parameters: key: 0 relating to no activity; 1 relating to weak activity comprising less than 50% of the cells; score 2 relating to strong activity comprising more than 50% of the cells
Description: as §2

[6] = system: HeLa; assay: AnnexinV/7-AAD staining; assay type: cell-based, human; conditions: 10 µM, 24 h treatment
Description: as §1

[7] = system: Jurkat; assay: AnnexinV/7-AAD staining; assay type: cell-based, human; conditions: 10 µM, 24 h treatment
Description: as §1

[8] = system: Ramos; assay: AnnexinV/7-AAD staining; assay type: cell-based, human; conditions: 10 µM, 24 h treatment
Description: as §1

[9] = system: Ramos; assay: Hoechst 33342 nuclear staining (Table 3); assay type: cell-based, human; parameters: key: 0 relating to no activity; 1 relating to weak activity comprising less than 50% of the cells; score 2 relating to strong activity comprising more than 50% of the cells; conditions: 24h
Description: as §2

[10] = system: A20; assay: Hoechst 33342 nuclear staining (Table 3); assay type: cell-based, mouse; parameters: key: 0 relating to no activity; 1 relating to weak activity comprising less than 50% of the cells; score 2 relating to strong activity comprising more than 50% of the cells
Description: as §2

Row | Compound | percentage of positively stained cells (AnnexinV/7-AAD staining) [1] | Hoechst 33342 nuclear staining ([3]; 24h, conc 0.3 (µM)) | Hoechst 33342 nuclear staining ([3]; 24h, conc 1 (µM)) | Hoechst 33342 nuclear staining ([3]; 24h, conc 3 (µM)) | Hoechst 33342 nuclear staining ([3]; 24h, conc 10 (µM)) | Hoechst 33342 nuclear staining ([3]; 48h, conc 0.3 (µM)) | Hoechst 33342 nuclear staining ([3]; 48h, conc 1 (µM)) | Hoechst 33342 nuclear staining ([3]; 48h, conc 3 (µM)) | Hoechst 33342 nuclear staining ([3]; 48h, conc 10 (µM)) | Hoechst 33342 nuclear staining ([4]; K562, 24h, conc 0.3 (µM)) | Hoechst 33342 nuclear staining ([4]; K562, 24h, conc 1 (µM)) | Hoechst 33342 nuclear staining ([4]; K562, 24h, conc 3 (µM)) | Hoechst 33342 nuclear staining ([4]; K562, 48h, conc 0.3 (µM)) | Hoechst 33342 nuclear staining ([4]; K562, 48h, conc 1 (µM)) | Hoechst 33342 nuclear staining ([4]; K562, 48h, conc 3 (µM)) | Hoechst 33342 nuclear staining ([4]; K562, 48h, conc 10 (µM)) | Hoechst 33342 nuclear staining ([5]; 24h, conc 0.3 (µM)) | Hoechst 33342 nuclear staining ([5]; 24h, conc 1 (µM)) | Hoechst 33342 nuclear staining ([5]; 24h, conc 3 (µM)) | Hoechst 33342 nuclear staining ([5]; 24h, conc 10 (µM)) | other results
1 | CC1(C)Cc2ccccc2-c2cc3nc4ccccc4nc3n21 [No. 1, 6,6-Dimethyl-5,6-dihydro-6a,7,12-triaza-dibenzo[a,h]fluorene] | 0 (Score 0 relates to less than 10%) | 0 | 0 | 0 | 0 | 0 | 2 (score 2 relating to strong activity comprising more than 50% of the cells) | 2 (score 2 relating to strong activity comprising more than 50% of the cells) | 2 (score 2 relating to strong activity comprising more than 50% of the cells) | 0 | 0 | 0 | 0 | 1 (1 relating to weak activity comprising less than 50% of the cells) | 2 (score 2 relating to strong activity comprising more than 50% of the cells) | 2 (score 2 relating to strong activity comprising more than 50% of the cells) | 1 (1 relating to weak activity comprising less than 50% of the cells) | 1 (1 relating to weak activity comprising less than 50% of the cells) | 2 (score 2 relating to strong activity comprising more than 50% of the cells) | 2 (score 2 relating to strong activity comprising more than 50% of the cells) | Hoechst 33342 nuclear staining ([2]; 24h, conc 0.3 (µM)): 0; Hoechst 33342 nuclear staining ([2]; 24h, conc 1 (µM)): 0; Hoechst 33342 nuclear staining ([2]; 24h, conc 3 (µM)): 0; Hoechst 33342 nuclear staining ([2]; 24h, conc 10 (µM)): 0; Hoechst 33342 nuclear staining ([2]; 48h, conc 0.3 (µM)): 0; Hoechst 33342 nuclear staining ([2]; 48h, conc 1 (µM)): 0; Hoechst 33342 nuclear staining ([2]; 48h, conc 3 (µM)): 0; Hoechst 33342 nuclear staining ([2]; 48h, conc 10 (µM)): 0; Hoechst 33342 nuclear staining ([5]; 48h, conc 0.3 (µM)): 2 (score 2 relating to strong activity comprising more than 50% of the cells); Hoechst 33342 nuclear staining ([5]; 48h, conc 1 (µM)): 2 (score 2 relating to strong activity comprising more than 50% of the cells); Hoechst 33342 nuclear staining ([5]; 48h, conc 3 (µM)): 2 (score 2 relating to strong activity comprising more than 50% of the cells); Hoechst 33342 nuclear staining ([5]; 48h, conc 10 (µM)): 2 (score 2 relating to strong activity comprising more than 50% of the cells); percentage of positively stained cells (AnnexinV/7-AAD staining) [6]: 1 (score 1 relates to more than 10% but less than 50%); percentage of positively stained cells (AnnexinV/7-AAD staining) [7]: 0 (Score 0 relates to less than 10%); percentage of positively stained cells (AnnexinV/7-AAD staining) [8]: 1 (score 1 relates to more than 10% but less than 50%)
2 | [2-(3-Methoxy-6,6-dimethyl-5,6-dihydro-6a,7,12-triaza-dibenzofluoren-2-yloxy)-ethyl]-dimethyl-amine [No. 6] | 2 (score 2 relates to more than 50% positivity) | 0 | 0 | 0 | 2 (score 2 relating to strong activity comprising more than 50% of the cells) | 0 | 0 | 0 | 2 (score 2 relating to strong activity comprising more than 50% of the cells) | 0 | 0 | 0 | 0 | 0 | 0 | 2 (score 2 relating to strong activity comprising more than 50% of the cells) | 0 | 0 | 0 | 2 (score 2 relating to strong activity comprising more than 50% of the cells) | Hoechst 33342 nuclear staining ([4]; K562, 24h, conc 10 (µM)): 2 (score 2 relating to strong activity comprising more than 50% of the cells); Hoechst 33342 nuclear staining ([5]; 48h, conc 0.3 (µM)): 0; Hoechst 33342 nuclear staining ([5]; 48h, conc 1 (µM)): 2 (score 2 relating to strong activity comprising more than 50% of the cells); Hoechst 33342 nuclear staining ([5]; 48h, conc 3 (µM)): 2 (score 2 relating to strong activity comprising more than 50% of the cells); Hoechst 33342 nuclear staining ([5]; 48h, conc 10 (µM)): 2 (score 2 relating to strong activity comprising more than 50% of the cells); Hoechst 33342 nuclear staining ([9]; conc 0.3 (µM)): 0; Hoechst 33342 nuclear staining ([9]; conc 1 (µM)): 0; Hoechst 33342 nuclear staining ([9]; conc 3 (µM)): 0; Hoechst 33342 nuclear staining ([9]; conc 10 (µM)): 2 (score 2 relating to strong activity comprising more than 50% of the cells); Hoechst 33342 nuclear staining ([10]; A20, 24h, conc 0.3 (µM)): 0; Hoechst 33342 nuclear staining ([10]; A20, 24h, conc 1 (µM)): 0; Hoechst 33342 nuclear staining ([10]; A20, 24h, conc 3 (µM)): 0; Hoechst 33342 nuclear staining ([10]; A20, 24h, conc 10 (µM)): 0; Hoechst 33342 nuclear staining ([10]; A20, 48h, conc 0.3 (µM)): 0; Hoechst 33342 nuclear staining ([10]; A20, 48h, conc 1 (µM)): 0; Hoechst 33342 nuclear staining ([10]; A20, 48h, conc 3 (µM)): 0; Hoechst 33342 nuclear staining ([10]; A20, 48h, conc 10 (µM)): 2 (score 2 relating to strong activity comprising more than 50% of the cells); percentage of positively stained cells (AnnexinV/7-AAD staining) [6]: 2 (score 2 relates to more than 50% positivity); percentage of positively stained cells (AnnexinV/7-AAD staining) [7]: 2 (score 2 relates to more than 50% positivity); percentage of positively stained cells (AnnexinV/7-AAD staining) [8]: 2 (score 2 relates to more than 50% positivity)
